Experimental findings from patent US10017481B2, “Conformationally constrained, fully synthetic macrocyclic compounds” (POLYPHOR AG, priority 2012, dated 2018) are described below.

Common to all, as to type: in vitro ADME
Series [1] can be described thus: Plasma stability assay, human plasma. The following applies: for Plasma Stability 240 min hum [% remain.]: human plasma, 10 μM, 37° C.; for half-life at 10 μM: human, plasma. As to the method:
(§1) 5. Plasma and Metabolic Stability Assays Example compounds were dissolved in DMSO/H2O 90:10 to a final concentration of 10 mM for plasma stability determination and metabolic stability determination. The assays were conducted according to literature precedents (F. P. Guengerich, Analysis and Characterization of Enzymes; in: Principles and Methods of Toxicology, A. W. Hayes (Ed.) Raven Press: New York, 1989, 777-813; R. Singh et al., In vitro metabolism of a potent HIV-protease inhibitor (141W94) using rat, monkey and human liver S9, Rapid Commun. Mass Spectrom. 1996, 10, 1019-1026). Plasma Stability Assay Human plasma (Blutspendedienst SRK, Basel) and CD-1 mouse plasma (mixed gender pool >50 animals, Innovative Research, Calif., USA) are both sodium citrate stabilized. The assay is performed in triplicates at 10 μM compound concentration and 37° C. Samples are taken at 0, 15, 30, 60, 120 and 240 minutes and stopped by precipitation with 3 volumes of acetonitrile/formic acid 98:2 and shaking (2 minutes, 600 rpm) followed by filtration (−20 mm Hg). The filtrate is collected. The filtrate (100 μL) is evaporated and reconstituted in the suitable solvent (cf. Table 33) to be analyzed by HPLC/MS/MS. The resulting peak area counts are expressed in percent of the 0 value and used to determine the endpoint stability in % and the half life T in minutes. In order to monitor assay integrity the degradation of propantheline is assayed with every experimental set.

A short description of series [2]: Metabolic stability assay, CD-1 mouse microsomes. The settings on record: CD-1 mouse microsomes, 10 μM, 37° C.; for half-life at 10 μM: both sexes, 1 mg/ml protein, read-out: Metabolic Stability T ½ [min] mouse/(rat). As to the method: (§2) 5. Plasma and Metabolic Stability Assays
(§3) Example compounds were dissolved in DMSO/H2O 90:10 to a final concentration of 10 mM for plasma stability determination and metabolic stability determination.
(§4) The assays were conducted according to literature precedents (F. P. Guengerich, Analysis and Characterization of Enzymes; in: Principles and Methods of Toxicology, A. W. Hayes (Ed.) Raven Press: New York, 1989, 777-813; R. Singh et al., In vitro metabolism of a potent HIV-protease inhibitor (141W94) using rat, monkey and human liver S9, Rapid Commun. Mass Spectrom. 1996, 10, 1019-1026).
(§5) Metabolic Stability Assay
(§6) Microsomes from a human 50 donor mixed gender pool and 1:1 mixtures of microsomes from CD-1 mouse single-gender pools are purchased from Celsis (Belgium). The enzymatic reaction is performed in a buffer containing an NADPH regeneration system and microsomes with the following end concentrations: 100 mM potassium phosphate buffer (all from Sigma), 1 mg/mL glucose-6-phosphate, 1 mg/mL β-nicotinamide adenine dinucleotide phosphate (NADP), 0.65 mg/mL magnesium chloride, 0.8 units/mL of glucose-6-phosphate dehydrogenase (prediluted with 5 mM citrate buffer), 10 μM compound and 1 mg/ml microsomal protein. Compounds are incubated at 37° C. in duplicates and samples are taken after 0, 5, 10, 20 and 60 minutes. After acetonitrile precipitation (3 volumes), shaking (2 minutes, 600 rpm) followed by centrifugation (10 minutes, 3200 g), the supernatant is dried reconstituted in the suitable solvent (cf. Table 33) and analyzed by HPLC/MS/MS. Metabolic turnover is expressed in % of the initial 0 minutes value and half life T½ (min) is calculated. Verapamil for human and propranolol for mouse are used as reference and are assayed with every experimental set.

Series [3] in a line: Metabolic stability assay, human liver microsomes. The settings on record: human microsomes, 10 μM, 37° C.; for half-life at 10 μM: both sexes, liver microsomes, 1 mg/ml protein, read-out: Metabolic Stability T ½ [min] hum. As for the experimental part: as §2, §3, §4, §5, §6
In general terms: Microsomes from liver hold many membrane-bound enzymes, among them those of drug oxidation.

Series [4] can be described thus: Plasma stability assay, CD-1 mouse plasma. The following applies: for Plasma Stability 240 min mouse/(rat) [% remain.]: CD-1 mouse plasma, 10 μM, 37° C.; for half-life at 10 μM: both sexes, CD-1, mouse, plasma. As for the experimental part:
as §1

Where only a bound is given, the exact number is not on record here.

In the case of `C[C@H]1COc2cccc(c2)-c2cccc(c2)C(=O)N(C)[C@H](C(=O)NCCCN2CCCC2)CCC(=O)N1` [Ex. 85, (9S,14S)-9,15-dimethyl-11,16-dioxo-N-[3-(1-pyrrolidinyl)propyl]-7-oxa-10,15-diazatricyclo[15.3.1.1^2,6]docosa-1(21),2(22),3,5,17,19-hexaene-14-carboxamide], in series [1], the “Plasma Stability 240 min hum [% remain.]” value was determined as 100 % remain and the half-life at 10 μM was more than 4 h. In series [2], the “Metabolic Stability 60 min mouse/(rat) [% remain.]” value is 80 % remain and the half-life at 10 μM was more than 60 min. Further, in series [3], the half-life at 10 μM is more than 60 min and the “Metabolic Stability 60 min hum [% remain.]” value was found to be 100 % remain. In series [4], the “Plasma Stability 240 min mouse/(rat) [% remain.]” value was determined as 88 % remain and the half-life at 10 μM was more than 4 h.

Take `CNC(=O)[C@@H]1CCC(=O)N[C@@H](C)COc2cccc(c2)-c2cccc(c2)C(=O)N1C` [Ex. 70, (9S,14S)-N,9,15-trimethyl-11,16-dioxo-7-oxa-10,15-diazatricyclo[15.3.1.1^2,6]docosa-1(21),2(22),3,5,17,19-hexaene-14-carboxamide]: in series [1], the “Plasma Stability 240 min hum [% remain.]” value came to 99 % remain and the half-life at 10 μM is more than 4 h. In series [2], the “Metabolic Stability 60 min mouse/(rat) [% remain.]” value is on record as 77 % remain and the half-life at 10 μM was more than 60 min. Besides, in series [3], the half-life at 10 μM is more than 60 min and the “Metabolic Stability 60 min hum [% remain.]” value was 100 % remain. Moreover, in series [4], the “Plasma Stability 240 min mouse/(rat) [% remain.]” value is 61 % remain and the half-life at 10 μM is more than 4 h.

Turning to `COc1ccc2c(c1)-c1cccc(c1)C(=O)N(C)[C@H](C(=O)NC1CC1)CCC(=O)N[C@H](C)CO2` [Ex. 52, (10R,15S)-N-cyclopropyl-4-methoxy-10,16-dimethyl-12,17-dioxo-8-oxa-11,16-diazatricyclo[16.3.1.0^2,7]docosa-1(22),2,4,6,18,20-hexaene-15-carboxamide], in series [1], the “Plasma Stability 240 min hum [% remain.]” value came out at 99 % remain and the half-life at 10 μM is more than 4 h. Further, in series [2], the “Metabolic Stability 60 min mouse/(rat) [% remain.]” value was 78 % remain and the half-life at 10 μM is more than 60 min. Also, in series [3], the half-life at 10 μM is more than 60 min and the “Metabolic Stability 60 min hum [% remain.]” value is 100 % remain. Besides, in series [4], the “Plasma Stability 240 min mouse/(rat) [% remain.]” value stood at 95 % remain and the half-life at 10 μM was more than 4 h.

Turning to `C[C@H]1COc2cccc(c2)-c2cccc(c2)C(=O)N(C)[C@H](C(=O)NCc2ccc3ccccc3c2)CCC(=O)N1` [Ex. 89, (9S,14S)-9,15-dimethyl-N-(2-naphthylmethyl)-11,16-dioxo-7-oxa-10,15-diazatricyclo[15.3.1.1^2,6]docosa-1(21),2(22),3,5,17,19-hexaene-14-carboxamide], in series [1], the “Plasma Stability 240 min hum [% remain.]” value is given as 100 % remain and the half-life at 10 μM is more than 4 h. Besides, in series [2], the “Metabolic Stability 60 min mouse/(rat) [% remain.]” value is reported as 2 % remain and the half-life at 10 μM was determined as 10 min. In series [3], the half-life at 10 μM turned out to be 13 min and the “Metabolic Stability 60 min hum [% remain.]” value came to 8 % remain. In addition, in series [4], the “Plasma Stability 240 min mouse/(rat) [% remain.]” value turned out to be 76 % remain and the half-life at 10 μM is more than 4 h.

Consider `COCCNC(=O)[C@@H]1CCC(=O)N[C@@H](C)COc2cccc(c2)-c2cccc(c2)C(=O)N1C` [Ex. 77, (9S,14S)-N-(2-methoxyethyl)-9,15-dimethyl-11,16-dioxo-7-oxa-10,15-diazatricyclo[15.3.1.1^2,6]docosa-1(21),2(22),3,5,17,19-hexaene-14-carboxamide], for which, in series [1], the “Plasma Stability 240 min hum [% remain.]” value was 96 % remain and the half-life at 10 μM is more than 4 h. In series [2], the “Metabolic Stability 60 min mouse/(rat) [% remain.]” value is on record as 75 % remain and the half-life at 10 μM is more than 60 min. Further, in series [3], the half-life at 10 μM was determined as 44 min and the “Metabolic Stability 60 min hum [% remain.]” value was 41 % remain. Also, in series [4], the “Plasma Stability 240 min mouse/(rat) [% remain.]” value was 85 % remain and the half-life at 10 μM was more than 4 h.

`COc1ccc2c(c1)-c1cccc(c1)C(=O)N(C)[C@H](C(=O)NCCN(C)C)CCC(=O)N[C@H](C)CO2` [Ex. 47, (10R,15S)-N-[2-(dimethylamino)ethyl]-4-methoxy-10,16-dimethyl-12,17-dioxo-8-oxa-11,16-diazatricyclo[16.3.1.0^2,7]docosa-1(22),2,4,6,18,20-hexaene-15-carboxamide]: in series [1], the “Plasma Stability 240 min hum [% remain.]” value worked out at 99 % remain and the half-life at 10 μM is more than 4 h. In series [2], the “Metabolic Stability 60 min mouse/(rat) [% remain.]” value is given as 100 % remain and the half-life at 10 μM was more than 60 min. Moreover, in series [3], the half-life at 10 μM was more than 60 min and the “Metabolic Stability 60 min hum [% remain.]” value was found to be 83 % remain. Besides, in series [4], the “Plasma Stability 240 min mouse/(rat) [% remain.]” value came out at 86 % remain and the half-life at 10 μM was more than 4 h.

Turning to `C[C@H]1COc2cccc(c2)-c2cccc(c2)C(=O)N(C)[C@H](C(N)=O)CCC(=O)N1` [Ex. 71, (9S,14S)-9,15-dimethyl-11,16-dioxo-7-oxa-10,15-diazatricyclo[15.3.1.1^2,6]docosa-1(21),2(22),3,5,17,19-hexaene-14-carboxamide], in series [1], the “Plasma Stability 240 min hum [% remain.]” value came to 100 % remain and the half-life at 10 μM is more than 4 h. Moreover, in series [2], the “Metabolic Stability 60 min mouse/(rat) [% remain.]” value is reported as 89 % remain and the half-life at 10 μM was more than 60 min. In series [3], the half-life at 10 μM is more than 60 min and the “Metabolic Stability 60 min hum [% remain.]” value amounted to 100 % remain. In addition, in series [4], the “Plasma Stability 240 min mouse/(rat) [% remain.]” value was 92 % remain and the half-life at 10 μM is more than 4 h.

Take `CNC(=O)[C@@H]1CCC(=O)N[C@H](C)COc2ccc(OC)cc2-c2cccc(c2)C(=O)N1C` [Ex. 44, (10R,15S)-4-methoxy-N,10,16-trimethyl-12,17-dioxo-8-oxa-11,16-diazatricyclo[16.3.1.0^2,7]docosa-1(22),2,4,6,18,20-hexaene-15-carboxamide]: in series [1], the “Plasma Stability 240 min hum [% remain.]” value is reported as 100 % remain and the half-life at 10 μM is more than 4 h. Besides, in series [2], the “Metabolic Stability 60 min mouse/(rat) [% remain.]” value turned out to be 77 % remain and the half-life at 10 μM was more than 60 min. Moreover, in series [3], the half-life at 10 μM was more than 60 min and the “Metabolic Stability 60 min hum [% remain.]” value is reported as 68 % remain. For the same compound, in series [4], the “Plasma Stability 240 min mouse/(rat) [% remain.]” value is reported as 83 % remain and the half-life at 10 μM was more than 4 h.

Consider `COc1ccc2c(c1)-c1cccc(c1)C(=O)N(C)[C@H](C(=O)Nc1ccccc1)CCC(=O)N[C@H](C)CO2` [Ex. 45, (10R,15S)-4-methoxy-10,16-dimethyl-12,17-dioxo-N-phenyl-8-oxa-11,16-diazatricyclo[16.3.1.0^2,7]docosa-1(22),2,4,6,18,20-hexaene-15-carboxamide], for which, in series [1], the “Plasma Stability 240 min hum [% remain.]” value stood at 76 % remain and the half-life at 10 μM was more than 4 h. In addition, in series [2], the “Metabolic Stability 60 min mouse/(rat) [% remain.]” value is 73 % remain and the half-life at 10 μM was more than 60 min. Also, in series [3], the half-life at 10 μM was more than 60 min and the “Metabolic Stability 60 min hum [% remain.]” value is given as 66 % remain. Moreover, in series [4], the “Plasma Stability 240 min mouse/(rat) [% remain.]” value was 46 % remain and the half-life at 10 μM amounted to 3.17 h.
